In patent US6525001B1, “Substituted pyrimidine and pyridine herbicides” (Mid-American Commercialization Corporation, priority 1997, dated 2003):

Columns and labels:
Format in all cases: in vivo
Parameters in all cases: key: 0 is no effect; 10 is complete control
[1] = system: smallflower flatsedge (Cyperus difformis); assay: Test B flood test
Summary of the method: (§1)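 Plants were grown to the 2-leaf stage before treatment with test chemical, then held in a greenhouse for twelve to sixteen days. Injury was visually rated against untreated controls on a 0–10 scale, where 0 is no effect and 10 is complete control.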

rice (Oryza sativa) = assay: Test B flood test
Summary of the method: as §1

[2] = system: duck salad (Heteranthera limosa); assay: Test B flood test
Summary of the method: as §1

[3] = system: bamyardgrass (Echinochloa crus-galli); assay: Test B flood test
Summary of the method: as §1

[4] = system: purple nutsedge (Cyperus rotundus); assay: Test B pre-/postemergence; conditions: for Plant response rating, Nutsedge: Preemergence
Summary of the method: (§2)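 Seeds were planted and sprayed preemergence, while plants at 2 to 18 cm (1- to 4-leaf stage) were sprayed postemergence at the same time, with test chemical in a non-phytotoxic solvent mixture containing surfactant. After twelve to sixteen days in a greenhouse, injury was rated visually against untreated controls on a 0–10 scale.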

[5] = system: velvetleaf (Abutilon theophrasti); assay: Test B pre-/postemergence; conditions: for Velvetleaf plant response rating: Postemergence
Summary of the method: as §2

wild oat (Avena fatua) = assay: Test B pre-/postemergence; conditions: for Plant response rating, Wild oats: Preemergence; for Wild oats plant response rating: Postemergence
Summary of the method: as §2

corn (Zea mays) = assay: Test B pre-/postemergence; conditions: for Plant response rating, Corn: Preemergence; for Corn plant response rating: Postemergence
Summary of the method: as §2

[6] = system: wheat (Triticum aestivum); assay: Test B pre-/postemergence; conditions: for Plant response rating, Wheat: Preemergence; for Wheat plant response rating: Postemergence
Summary of the method: as §2

[7] = system: cocklebur (Xanthium strumarium); assay: Test B pre-/postemergence; conditions: for Plant response rating, Cocklebur: Preemergence; for Cocklebur plant response rating: Postemergence
Summary of the method: as §2

[8] = system: pigweed (Amaranthus retroflexus); assay: Test B pre-/postemergence; conditions: for Plant response rating, Redroot pigweed: Preemergence; for Redroot pigweed plant response rating: Postemergence
Summary of the method: as §2

soybean (Glycine max) = assay: Test B pre-/postemergence; conditions: for Plant response rating, Soybean: Preemergence; for Soybean plant response rating: Postemergence
Summary of the method: as §2

[9] = system: sugar beet (Beta vulgaris); assay: Test B pre-/postemergence; conditions: for Plant response rating, Sugarbeets: Preemergence; for Sugarbeets plant response rating: Postemergence
Summary of the method: as §2

[10] = system: crabgrass (Digitaria sanguinalis); assay: Test B pre-/postemergence; conditions: for Plant response rating, Crabgrass: Preemergence; for Crabgrass plant response rating: Postemergence
Summary of the method: as §2

[11] = system: giant foxtail (Setaria faberii); assay: Test B pre-/postemergence; conditions: for Plant response rating, Giant foxtail: Preemergence; for Giant foxtail plant response rating: Postemergence
Summary of the method: as §2

rape (Brassica napus) = assay: Test B pre-/postemergence; conditions: for Plant response rating, Rape: Preemergence; for Rape plant response rating: Postemergence
Summary of the method: as §2

[12] = system: broadleaf signalgrass (Brachiaria decumbens); assay: Test B pre-/postemergence
Summary of the method: as §2

[13] = system: momingglory (Ipomoea hederacea); assay: Test B pre-/postemergence; conditions: for Plant response rating, Morningglory: Preemergence; for Morningglory plant response rating: Postemergence
Summary of the method: as §2

[14] = system: blackgrass (Alopecurus myosuroides); assay: Test B pre-/postemergence; conditions: for Plant response rating, Blackgrass: Preemergence; for Blackgrass plant response rating: Postemergence
Summary of the method: as §2

[15] = system: bedstraw (Galium aparine); assay: Test B pre-/postemergence; conditions: for Plant response rating, Bedstraw: Preemergence; for Bedstraw plant response rating: Postemergence
Summary of the method: as §2

[16] = Rate 62 g/ha, Postemergence (flood test)
[17] = Rate 125 g/ha, Postemergence section (flood test species)

CCc1cnc(-n2ccc(C(F)(F)F)n2)nc1C(=O)c1cccc(C(F)(F)F)c1 [Compound 69]
S. Flatsedge plant response rating [1, 16]: 2
S. Flatsedge plant response rating [1, 17]: 4
Rice plant response rating (rice (Oryza sativa); [16]): 0
Rice plant response rating (rice (Oryza sativa); [17]): 2
Ducksalad plant response rating [2, 16]: 0
Ducksalad plant response rating [2, 17]: 1
Barnyardgrass plant response rating [3, 16]: 1
Barnyardgrass plant response rating [3, 17]: 2
Plant response rating, Nutsedge ([4]; Rate 62 g/ha, scale of 0 to 10): 0
Nutsedge plant response rating ([4]; Rate 62 g/ha, Postemergence): 2
Plant response rating, Nutsedge ([4]; Rate 125 g/ha): 0
Velvetleaf plant response rating ([5]; Rate 62 g/ha): 8
Velvetleaf plant response rating ([5]; Rate 125 g/ha): 8
Plant response rating, Velvetleaf ([5]; Rate 125 g/ha, Preemergence): 8
Plant response rating, Wild oats (wild oat (Avena fatua); Rate 62 g/ha, scale of 0 to 10): 4
Wild oats plant response rating (wild oat (Avena fatua); Rate 62 g/ha): 3
Wild oats plant response rating (wild oat (Avena fatua); Rate 125 g/ha): 3
Plant response rating, Wild oats (wild oat (Avena fatua); Rate 125 g/ha): 7
Plant response rating, Corn (corn (Zea mays); Rate 62 g/ha, scale of 0 to 10): 0
Corn plant response rating (corn (Zea mays); Rate 62 g/ha): 2
Corn plant response rating (corn (Zea mays); Rate 125 g/ha): 2
Plant response rating, Corn (corn (Zea mays); Rate 125 g/ha): 0
Plant response rating, Wheat ([6]; Rate 62 g/ha, scale of 0 to 10): 1
Wheat plant response rating ([6]; Rate 62 g/ha): 3
Wheat plant response rating ([6]; Rate 125 g/ha): 4
Plant response rating, Wheat ([6]; Rate 125 g/ha): 1
Plant response rating, Cocklebur ([7]; Rate 62 g/ha, scale of 0 to 10): 0
Cocklebur plant response rating ([7]; Rate 62 g/ha): 8
Cocklebur plant response rating ([7]; Rate 125 g/ha): 8
Plant response rating, Cocklebur ([7]; Rate 125 g/ha): 2
Plant response rating, Redroot pigweed ([8]; Rate 62 g/ha, scale of 0 to 10): 8
Redroot pigweed plant response rating ([8]; Rate 62 g/ha): 10
Redroot pigweed plant response rating ([8]; Rate 125 g/ha): 10
Plant response rating, Redroot pigweed ([8]; Rate 125 g/ha): 10
Plant response rating, Soybean (soybean (Glycine max); Rate 62 g/ha, scale of 0 to 10): 0
Soybean plant response rating (soybean (Glycine max); Rate 62 g/ha): 4
Soybean plant response rating (soybean (Glycine max); Rate 125 g/ha): 4
Plant response rating, Soybean (soybean (Glycine max); Rate 125 g/ha): 1
Plant response rating, Sugarbeets ([9]; Rate 62 g/ha, scale of 0 to 10): 9
Sugarbeets plant response rating ([9]; Rate 62 g/ha): 10
Sugarbeets plant response rating ([9]; Rate 125 g/ha): 10
Plant response rating, Sugarbeets ([9]; Rate 125 g/ha): 9
Plant response rating, Crabgrass ([10]; Rate 62 g/ha, scale of 0 to 10): 6
Crabgrass plant response rating ([10]; Rate 62 g/ha): 3
Crabgrass plant response rating ([10]; Rate 125 g/ha): 4
Plant response rating, Crabgrass ([10]; Rate 125 g/ha): 9
Plant response rating, Giant foxtail ([11]; Rate 62 g/ha, scale of 0 to 10): 4
Giant foxtail plant response rating ([11]; Rate 62 g/ha): 2
Giant foxtail plant response rating ([11]; Rate 125 g/ha): 3
Plant response rating, Giant foxtail ([11]; Rate 125 g/ha): 8
Plant response rating, Rape (rape (Brassica napus); Rate 62 g/ha, scale of 0 to 10): 7
Rape plant response rating (rape (Brassica napus); Rate 62 g/ha): 6
Rape plant response rating (rape (Brassica napus); Rate 125 g/ha): 8
Plant response rating, Rape (rape (Brassica napus); Rate 125 g/ha): 8
B. signalgrass plant response rating ([12]; Rate 62 g/ha, Postemergence): 3
B. signalgrass plant response rating ([12]; Rate 62 g/ha, Preemergence): 8
B. signalgrass plant response rating ([12]; Rate 125 g/ha, Postemergence): 3
Plant response rating, B. signalgrass ([12]; Rate 125 g/ha, Preemergence): 9
Plant response rating, Morningglory ([13]; Rate 62 g/ha, scale of 0 to 10): 8
Morningglory plant response rating ([13]; Rate 62 g/ha): 9
Morningglory plant response rating ([13]; Rate 125 g/ha): 10
Plant response rating, Morningglory ([13]; Rate 125 g/ha): 8
Plant response rating, Blackgrass ([14]; Rate 62 g/ha, scale of 0 to 10): 1
Blackgrass plant response rating ([14]; Rate 62 g/ha): 2
Blackgrass plant response rating ([14]; Rate 125 g/ha): 3
Plant response rating, Blackgrass ([14]; Rate 125 g/ha): 4
Plant response rating, Bedstraw ([15]; Rate 62 g/ha, scale of 0 to 10): 7
Bedstraw plant response rating ([15]; Rate 62 g/ha): 9
Bedstraw plant response rating ([15]; Rate 125 g/ha): 9
Plant response rating, Bedstraw ([15]; Rate 125 g/ha): 9
